Data: patent US7008943B2, “1-(Pyrrolidin-1-ylmethyl)-3-(pyrrol-2-ylmethylidene)-2-indolinone derivatives” (Pharmacia & Upjohn Company, priority 2000, dated 2006)

Assays:
[1] = Plasma Stability Test: conversion of prodrug to drug after IV administration to dogs, HPLC analysis of blood plasma; format: in vivo; conditions: IV at 2 mg/mL, blood plasma followed by HPLC for 4 hours following dosing
Procedure: The prodrug (3Z)-3-[(3,5-dimethyl-1H-pyrrol-2-yl)-methylidene]-1-(1-pyrrolidinylmethyl)-1,3-dihydro-2H-indol-2-one was administered IV at 2 mg/mL to dogs. Levels of both prodrug and drug (3(Z)-3-[(3,5-dimethyl-1H-pyrrol-2-yl)-methylidene]-1,3-dihydro-2H-indol-2-one) were followed by HPLC analysis of blood plasma for 4 hours following dosing.

[2] = Aqueous solubility of prodrug versus parent compound; format: physicochemical; conditions: versus parent compound (II)
Description: The prodrug compounds of the present invention have advantages over compounds of Formula (II) by virtue of improved aqueous solubility and formulability. […] It is contemplated that similar enhanced solubility will be observed for other compounds of Formula (I) carrying the pyrrolidin-1-ylmethyl moiety at the nitrogen of the indolinone ring. A general description of the advantages and uses of prodrugs as pharmaceutically useful compounds is given in an article by Waller and George in Br. J Clin. Pharmac., Vol. 28, pp. 497–507, 1989.

**Q.** With `Cc1cc(C)c(/C=C2\C(=O)N(CN3CCCC3)c3ccccc32)[nH]1` [Example 1, (3Z)-3-[(3,5-Dimethyl-1H-pyrrol-2-yl)-methylidene]-1-(1-pyrrolidinylmethyl)-1,3-dihydro-2H-indol-2-one] as the molecule, how does the “half-life for conversion of the prodrug to drug” value [1] read?
**A.** The value was 7.3 min.

**Q.** What about the “prodrug converted into drug (from area under the curve of drug concentration vs. time)” value [1] of the same molecule?
**A.** Its value is 80%.

**Q.** And the “aqueous solubility compared with the parent compound” value [2]?
**A.** The value was “increased aqueous solubility”.
